Assay results reported in patent US20240091242A1, “LIPIDS THAT REDUCE LUNG DAMAGE, IMPROVE PULMONARY FUNCTION AND DECREASE PRO-INFLAMMATORY CYTOKINES” (Signpath Pharma, Inc., priority 2021, published 2024).

Tested on: pro-inflammatory cytokines in the BALF
Assay: Multiplex analysis of cytokine levels in BALF, murine LPS ARDS model
Type: in vivo, mouse
Details: for IL1-alpha level in BALF / IP-10 level in BALF / MIG level in BALF: in pg/mL (unit assumed)
Source text: C57B16/N mice were obtained from Charles River Laboratories (Montreal, Quebec). Male mice, 20-25 g of body weight, were used throughout the studies. Animals were housed in specific pathogen[…]free conditions, and all experiments were approved by Institutional Animal Care and Use Committee (IPST_SL20200402-1). Animal studies are reported in compliance with […] guidelines.
All delivered mice were kept for one week as an acclimatization period prior to performing any experiments. Animals were housed in a maximum of two mice per cage under a 12[…]h light/12[…]h dark cycle at a temperature of ˜20-22° C. and 40-60% humidity. Food and water were available ad libitum. Each cage of mice was blindly assigned for different treatments or maintained as a control group according to the experimental design. The individual who carried out the experiments was not blinded as to treatment, but data analysis and experiments were otherwise blinded to avoid any bias.
In the ARDS group, mice received Escherichia coli O111:B4 lipopolysaccharide (50 μg in 0.05 mL saline, i.t.), while, in the control group, the animals received an instillation of saline (0.05 mL, i.t.). For intratracheal instillation, mice were slightly anesthetized with isoflurane.
The lipid SPPCT-800 was dissolved in water (low dose—2 mg/ml; high dose—20 mg/ml). For the 24-hour study, two treatment approaches were used. Mice received a single dose of SPPCT-800 (200 mg/kg, per gavage) as prevention (30 minutes before the LPS instillation), or as a single dose of either 20 mg/kg or 200 mg/kg as therapy (3-hour after the LPS instillation). For the 72-hour study, mice received a total of 8 treatments of SPPCT-800 (200 mg/kg) starting at 3-hour after the LPS instillation. Disease progression in mice was assessed by the evaluation of pulmonary functions, blood oxygen saturation, and body weight change. On the terminal day of each study (24 hours or 72 hours), measurement of cytokine levels in the plasma and BALF, and histopathology evaluations were done.
Differential Cell Counts in BALF. The left lung was clamped while 0.9 mL of cold PBS 1×, Protease Inhibitor 1× (SigmaFast®) solution (3×300 μL) was injected so bronchoalveolar lavage fluid (BALF) from the right lobe of the lungs could be collected. The protein assay was performed according to the manufacturer's instruction BCA Protein Assay (Pierce™-#23227). Briefly, a dilution factor of 5 was used (1 part of BALF: 4 part of PBS 1×). 10 μL, of the diluted sample was added into the microplate wells. 200 μL of the working reagent was added into each well. The plate was covered, incubated at 37° C. for 30 minutes. After a cool-down period, the absorbance at 562 nm was rapidly measured using a monochromatic spectrophotometer (SpectraMAX ® plus—Molecular Devices). The total BALF protein content was reported by multiplying the protein concentration by the dilution factor, and then multiplying by the total of BALF volume collected.
Multiplex analysis of mediators. The inventors quantified 31 different mediators in the BALF and plasma by using a Discovery Assay® (Mouse Cytokine and Chemokine Array 31-Plex (MD31), Eve Technologies Corp, Calgary, AB, Canada). The multiplex assay was performed at Eve Technologies using the Bio-Plex™ 200 system (Bio-Rad Laboratories, Inc., Hercules, CA, USA) and a Milliplex Mouse Cytokine/Chemokine kit (Millipore, St. Charles, MO, USA) according to Eve Tech protocol. The 31-plex consisted of Eotaxin, G-CSF, GM-CSF, IFN-γ, IL-1α, IL-1β, IL-2, IL-3, IL-4, IL-5, IL-6, IL-7, IL-9, IL-10, IL-12 (p40), IL-12 (p70), IL-13, IL-15, IL-17, IP-10, KC, LIF, MCP-1, M-CSF, MIG, MIP-1α, MIP-1β, MIP-2,RANTES, TNFα, and VEGF. The assay sensitivities of these markers range from 0.1 pg/mL to 33.3 pg/mL. Individual analytes' values and other assay details are available on Eve Technologies' website and in the Milliplex protocol.
Statistical Analysis. Results are expressed as means±SEM. […]

[1] = 24-hours, Pre: SPP4040 30 minutes before LPS
[2] = 24-hours, Thera: SPP4040 3 hours after LPS
[3] = 72-hours, Thera: eight SPP4040 injections over 72 hours after LPS

CCCCCCCCCCCCCC(=O)OCC(COP(=O)([O-])OCC(COC(=O)CCC)OC(=O)CCC)OC(=O)CCCCCCCCCCCCC.CCCCCCCCCCCCCC(=O)OCC(COP(=O)([O-])OCC(COC(=O)CCC)OC(=O)CCC)OC(=O)CCCCCCCCCCCCC.[Mg+2] (stereo not shown) [SPPCT-800]
Eotaxin level in BALF [1]: 10 ± 1
G-CSF level in BALF [1]: 6468 ± 381
GM-CSF level in BALF [1]: 26 ± 5
IFN gamma level in BALF [1]: 2 ± 1
IL1-beta level in BALF [1]: 69 ± 9
IL2 level in BALF [1]: 1.5 ± 0.2
IL3 level in BALF [1]: 0.4 ± 0.1
IL4 level in BALF [1]: 0.08 ± 0.01
IL5 level in BALF [1]: 10 ± 3
IL6 level in BALF [1]: 856 ± 188
IL7 level in BALF [1]: 1.7 ± 0.3
IL9 level in BALF [1]: 7.0 ± 0.3
IL10 level in BALF [1]: 1.4 ± 0.3
IL12 (p40) level in BALF [1]: 1.6 ± 0.3
IL12 (p70) level in BALF [1]: 7.4 ± 1.0
IL13 level in BALF [1]: 0.7 ± 0.1
IL15 level in BALF [1]: 5.1 ± 0.8
IL17 level in BALF [1]: 8.3 ± 3.2
KC level in BALF [1]: 622 ± 89
LIF level in BALF [1]: 38 ± 8
LIX level in BALF [1]: 94 ± 6
M-CSF level in BALF [1]: 21 ± 3
MCP-1 level in BALF [1]: 462 ± 103
MIP-1alpha level in BALF [1]: 323 ± 52
MIP-1beta level in BALF [1]: 801 ± 208
MIP-2 level in BALF [1]: 771 ± 107
RANTES level in BALF [1]: 45 ± 6
TNF-alpha level in BALF [1]: 91 ± 32
VEGF level in BALF [1]: 33 ± 2
IL1-alpha level in BALF [1]: 183 ± 25
IP-10 level in BALF [1]: 125 ± 10
MIG level in BALF [1]: 6.8 ± 1.5
Eotaxin level in BALF [2]: 14 ± 3
G-CSF level in BALF [2]: 7060 ± 853
GM-CSF level in BALF [2]: 46 ± 9
IFN gamma level in BALF [2]: 3 ± 1
IL1-beta level in BALF [2]: 103 ± 18
IL2 level in BALF [2]: 1.5 ± 0.3
IL3 level in BALF [2]: 0.5 ± 0.1
IL4 level in BALF [2]: 0.10 ± 0.01
IL5 level in BALF [2]: 10 ± 2
IL6 level in BALF [2]: 850 ± 212
IL7 level in BALF [2]: 1.7 ± 0.2
IL9 level in BALF [2]: 8.8 ± 1.3
IL10 level in BALF [2]: 1.4 ± 0.3
IL12 (p40) level in BALF [2]: 2.0 ± 0.3
IL12 (p70) level in BALF [2]: 6.0 ± 1.0
IL13 level in BALF [2]: 1.1 ± 0.2
IL15 level in BALF [2]: 3.1 ± 0.7
IL17 level in BALF [2]: 13.6 ± 5.6
KC level in BALF [2]: 1017 ± 140
LIF level in BALF [2]: 39 ± 12
LIX level in BALF [2]: 67 ± 20
M-CSF level in BALF [2]: 27 ± 6
MCP-1 level in BALF [2]: 494 ± 103
MIP-1alpha level in BALF [2]: 564 ± 132
MIP-1beta level in BALF [2]: 1924 ± 812
MIP-2 level in BALF [2]: 1054 ± 106
RANTES level in BALF [2]: 46 ± 6
TNF-alpha level in BALF [2]: 153 ± 32
VEGF level in BALF [2]: 34 ± 2
IL1-alpha level in BALF [2]: 331 ± 67
IP-10 level in BALF [2]: 163 ± 33
MIG level in BALF [2]: 6.6 ± 2.0
TNF-α levels in the BALF (in words) (72-hour study, p=0.0613): markedly reduced
Eotaxin level in BALF [3]: 6 ± 2
G-CSF level in BALF [3]: 1233 ± 572
GM-CSF level in BALF [3]: 9 ± 1
IFN gamma level in BALF [3]: 12 ± 1
IL1-beta level in BALF [3]: 89 ± 24
IL2 level in BALF [3]: 1.7 ± 0.4
IL3 level in BALF [3]: 0.5 ± 0.2
IL4 level in BALF [3]: 0.24 ± 0.05
IL5 level in BALF [3]: 0.4 ± 0.1
IL6 level in BALF [3]: 276 ± 151
IL7 level in BALF [3]: 2.0 ± 0.5
IL9 level in BALF [3]: 8.5 ± 1.6
IL10 level in BALF [3]: 1.1 ± 0.5
IL12 (p40) level in BALF [3]: 6.0 ± 1.2
IL12 (p70) level in BALF [3]: 15.7 ± 3.9
IL13 level in BALF [3]: 1.1 ± 0.2
IL15 level in BALF [3]: 4.8 ± 2.6
IL17 level in BALF [3]: 53.2 ± 26.9
KC level in BALF [3]: 216 ± 15
LIF level in BALF [3]: 11 ± 7
LIX level in BALF [3]: 25 ± 18
M-CSF level in BALF [3]: 11 ± 1
MCP-1 level in BALF [3]: 84 ± 34
MIP-1alpha level in BALF [3]: 1676 ± 554
MIP-1beta level in BALF [3]: 1561 ± 440
MIP-2 level in BALF [3]: 2649 ± 898
RANTES level in BALF [3]: 57 ± 20
TNF-alpha level in BALF [3]: 62 ± 17
VEGF level in BALF [3]: 11 ± 3
IL1-alpha level in BALF [3]: 576 ± 169
IP-10 level in BALF [3]: 1583 ± 385
MIG level in BALF [3]: 749.7 ± 186.7
MIP-1α and MIP 1-β in the BALF (in words) (at 24 hours): Suppressive effects
GM-CSF in the BALF (in words) (at 24 hours, 200 mg/kg preventive, 20 mg/kg therapeutic and 200 mg/kg therapeutic, P<0.001): highly significant depressions
IFN-γ levels in the BALF (in words) (at 24 hours, P<0.001): profoundly depressed
TNF-α in the BALF (in words) (at 24 hours, P=0.0959): markedly reduced
IL-1β, IL-2, IL-3, IL-4, IL-5, IL-7, IL-9, IL-10, IL-12 (p40), IL-12 (p70), IL-13 and IL-15 in the BALF (in words) (at 24 hours, with the exception of IL-6): major reductions
IFN-γ levels in the BALF (in words) (at 72 hours): Large reductions
MCP-1 in the BALF (in words) (at 72 hours): inhibited
GM-CSF in the BALF (in words) (at 72 hours, P<0.001): significant decreases
G-CSF, VEGF, KC, LIF, LIX and M-CSF in the BALF (in words) (mouse, in vivo): suppressed
